# Legend:
# Format in all cases: cell-based, human
# A2058 melanoma cells [1] = experiment: Flow cytometric analysis of cytochrome c release; settings: A2058, 1C 10 μmol/L, 24, 48 and 72 h
# Method: (§1) The A2058 and BLM melanoma cells were seeded 1 × 10^6 in Petri dishes with complete growth medium and cultivated for 24 h. After cell cultivation, the A2058 cells were treated with chalcone 1C at 10 μmol/L concentration, BLM cells at 20 μmol/L concentration and both melanoma cell lines were treated with DMSO as the negative control at the same concentrations for 24, 48 and 72 h. Adherent and floating cells were harvested, pelleted by centrifugation at 1200 rpm for 5 min. Pellets were resuspended in washing buffer (PBS) and divided for a particular analysis. Afterwards, cells were prepared according to assay kit protocols or fixed with cold 4% paraformaldehyde (15 min) and permeabilized with 90% methanol (10 min on ice) with washing steps (PBS) and stained prior to analysis (Table 5) for 15 min in the dark at room temperature. Fluorescence was detected using a BD FACSCalibur^TM Flow Cytometer (Becton Dickinson, San Jose, CA, USA).
# BLM melanoma cells [2] = experiment: Flow cytometric analysis of cytochrome c release; settings: 1C 20 μmol/L, 24, 48 and 72 h
# Method: as §1
# A2058 melanoma cells [3] = experiment: Western blot analyses of protein expression/phosphorylation
# Method: (§2) Melanoma cells (A2058 and BLM) were treated with the tested chalcone 1C (10 μM and 20 μM) for 24, 48 and 72 h. Protein lysates from melanoma cells were prepared using a Laemmle lysis buffer containing glycerol, 1M Tris/HCl (pH 6.8), 20% sodium dodecyl sulfate (SDS), deionized H20, phosphatase and protease inhibitors (Sigma-Aldrich) and a sonication process. The protein concentrations were determined by the Pierce® BCA Protein Assay Kit (Thermo Scientific, Rockford, IL, USA) and measured by an automated Cytation™ 3 Cell Imaging Multi-Mode Reader (Biotek) at a wavelength of 570 nm. Proteins (25–40 μg of sample per well) were separated on SDS-PAA gel (12%) at 100 V for 3 h and transferred to a polyvinylidene difluoride (PVDF) membrane using the iBlot™ 2 Dry Blotting System (Invitrogen, Carlsbad, CA, USA). Membranes with transferred proteins were blocked in 5% BSA (bovine serum albumin; SERVA, Heidelberg, Germany) or 5% non-fat dry milk (Cell Signaling Technology®, Danvers, MA, USA) in TBS-Tween (pH 7.4) for 1 h at room temperature to minimise non-specific binding. Blocking was followed by incubation with primary antibodies (Table 6) overnight at 4 °C. The next day, membranes were washed in TBS-Tween (3 × 5 min) and incubated with the corresponding horseradish peroxidase (HRP)-conjugated anti-mouse or anti-rabbit secondary antibody for 1 h at room temperature. After incubation, membranes were washed again in TBS-Tween (3 × 5 min) and the expression of proteins was detected using the MF-ChemiBIS 2.0 Imaging System (DNR BIO-Imaging Systems, Jerusalem, Israel) with chemiluminescent ECL substrate (Thermo Scientific, Rockford, IL, USA). A densitometric analysis of Western Blot (WB) results was performed using the Image Studio™ Lite Software (LI-COR Biosciences, Lincoln, NE, USA). Equal loading was verified by using the β-actin antibody. Three independent analyses were performed.
# BLM melanoma cells [4] = experiment: as above
# Method: as §2
# A2058 melanoma cells [5] = experiment: Apoptosis detection, Annexin V/PI staining; settings: A2058, 1C 10 μmol/L
# Source text: (§3) Phosphatidylserine (PS) is an anionic phospholipid located on the cytoplasmic surface of the plasma membrane in cells with intact membranes. The externalization of PS from the inner to outer surface of the lipid bilayer of plasma membrane is a typical marker of apoptosis in the early stages. Annexin V/PI double staining is a method for dividing cells into populations of living (An^−/PI^− Q3), early apoptotic (An^+/PI^− Q4), late apoptotic/necrotic (An^+/PI^+ Q2) and dead (An^−/PI^+ Q1). […] Furthermore, the concomitant decrease of living cells and the increased number of dead cells were also observed in a time-dependent pattern (Table 4, Figure 4).
# (§4) To perform apoptosis detection, A2058 and BLM melanoma cells were seeded in Petri dishes at a density of 1 × 10^5/dish and treated with chalcone 1C and DMSO as the negative control at the same concentrations for 24, 48 and 72 h. In the next step, adherent and floating melanoma cells were harvested, centrifuged and pellets were resuspended in washing buffer (PBS). Resuspended melanoma cells were stained with Annexin V-Alexa Fluor® 647 antibody (Thermo Scientific, Rockford, IL, USA) in binding buffer for 20 min in the dark at room temperature. Finally, melanoma cells were washed, stained with 1 μL of propidium iodide (final concentration 25 μg/mL) for 5 min and analysed using a BD FACSCalibur^TM Flow Cytometer (Becton Dickinson, San Jose, CA, USA). Three independent analyses were performed.
# BLM melanoma cells [6] = experiment: Apoptosis detection, Annexin V/PI staining; settings: 1C 20 μmol/L
# Source text: as §3, §4
# A2058 melanoma cells [7] = experiment: Flow cytometric analysis of mitochondrial membrane potential (TMRE); settings: A2058, 1C 10 μmol/L, 24, 48 and 72 h
# Method: as §1
# BLM melanoma cells [8] = experiment: as above; settings: 1C 20 μmol/L, 24, 48 and 72 h
# Method: as §1
# [9] = A2058, 1C 10 μmol/L, 24, 48 and 72 h
# [10] = 1C 20 μmol/L, maximum after 72 h
compound,measurement,setting,value
"COc1cccc(OC)c1C(=O)/C=C/c1c2ccccc2nc2ccccc12 [Compound 1C, (2E)-3-(acridin-9-yl)-1-(2,6-dimethoxyphenyl)prop-2-en-1-one]",Cytochrome c release,A2058 melanoma cells [1],significant release of cytochrome c
same,Cytochrome c release,BLM melanoma cells [2],significant release of cytochrome c
same,Levels of antiapoptotic protein Bcl-xL (WB),"A2058 melanoma cells [3]; A2058, 1C 10 μmol/L",decreased levels
same,Phosphorylation of Bad (WB),"A2058 melanoma cells [3]; A2058, 1C 10 μmol/L",increasing up to 48 h
same,Phosphorylation of Bcl-2 (WB),"A2058 melanoma cells [3]; A2058, 1C 10 μmol/L",increased in A2058 up to 48 h and decreased at 72 h
same,Phosphorylation of Chk1 (WB),"A2058 melanoma cells [3]; A2058, 1C 10 μmol/L, 24, 48 (maximum) and 72 h",significantly induced
same,Levels of cleaved PARP (89 kDa) (WB),A2058 melanoma cells [3]; [9],significantly increased
same,Total and phosphorylated p53 protein (WB),A2058 melanoma cells [3]; [9],significant increase
same,Expression of p21 protein (WB),"A2058 melanoma cells [3]; A2058, 1C 10 μmol/L, after 24 and 48 h",significant increase
same,Phospho-JNK (WB),"A2058 melanoma cells [3]; A2058, 1C 10 μmol/L, all tested timepoints",significantly increased
same,Phosphorylated form of p38 MAPK (WB),"A2058 melanoma cells [3]; A2058, 1C 10 μmol/L, mainly after 48 h",significantly increased
same,"Expression of α-, α1C- and β-tubulin (WB)","A2058 melanoma cells [3]; A2058, 1C 10 μmol/L, maximum after 48 and 72 h",significant upregulation
same,Phosphorylation of ERK1/2 (WB),"A2058 melanoma cells [3]; A2058, 1C 10 μmol/L, maximum after 48 h",significantly increased
same,Phosphorylated cyclin B1 (WB),"A2058 melanoma cells [3]; A2058, 1C 10 μmol/L, maximum after 72 h",significant downregulation
same,Amounts of proapoptotic protein Bax and Bad (WB),"A2058 melanoma cells [3]; A2058, 1C 10 μmol/L, maximum at 48 h",significantly increased
same,Total Bcl-2 protein (WB),"A2058 melanoma cells [3]; A2058, 1C 10 μmol/L, up to 48 h",upregulated
same,Expression of p21 protein (WB),BLM melanoma cells [4]; 1C 20 μmol/L,showed an increase and maintained a trend
same,Levels of antiapoptotic protein Bcl-xL (WB),BLM melanoma cells [4]; 1C 20 μmol/L,decreased levels
same,Phosphorylation of Bad (WB),BLM melanoma cells [4]; 1C 20 μmol/L,increasing up to 48 h
same,Phosphorylation of Bcl-2 (WB),BLM melanoma cells [4]; 1C 20 μmol/L,increased up to the 72 h time point
same,Phosphorylation of Chk1 (WB),BLM melanoma cells [4]; 1C 20 μmol/L,consilient trend of Chk1 phosphorylation
same,Phosphorylation of ERK1/2 (WB),BLM melanoma cells [4]; 1C 20 μmol/L,consilient trend of ERK1/2 phosphorylation
same,Total Bcl-2 protein upregulated (WB),BLM melanoma cells [4]; 1C 20 μmol/L,it was not
same,p53 phosphorylation (WB),BLM melanoma cells [4]; 1C 20 μmol/L,phosphorylation increased late on 72 h
same,Levels of cleaved PARP (89 kDa) (WB),"BLM melanoma cells [4]; 1C 20 μmol/L, 24, 48 and 72 h",significantly increased
same,Total p53 protein (WB),"BLM melanoma cells [4]; 1C 20 μmol/L, 24, 48 and 72 h","maintenanted on basic levels as DMSO treated controls, with little decrease at 24 h"
same,Phospho-JNK (WB),"BLM melanoma cells [4]; 1C 20 μmol/L, all tested timepoints",significantly increased
same,Phosphorylated form of p38 MAPK (WB),"BLM melanoma cells [4]; 1C 20 μmol/L, mainly after 48 h",significantly increased
same,Expression of α1C-tubulin (WB),BLM melanoma cells [4]; [10],upregulation
same,Phosphorylated cyclin B1 (WB),BLM melanoma cells [4]; [10],significant downregulation
same,Amounts of proapoptotic protein Bax and Bad (WB),"BLM melanoma cells [4]; 1C 20 μmol/L, maximum at 48 h",significantly increased
same,Expression of α- and β-tubulin (WB),"BLM melanoma cells [4]; 1C 20 μmol/L, time-dependent",significant downregulation
same,Dead An−/PI+,A2058 melanoma cells [5]; 24 h,3.41 ± 0.46
same,Early Apo An+/PI−,A2058 melanoma cells [5]; 24 h,7.53 ± 1.17
same,Late Apo An+/PI+,A2058 melanoma cells [5]; 24 h,4.22 ± 0.47
same,Live An−/PI−,A2058 melanoma cells [5]; 24 h,84.80 ± 0.24
same,Dead An−/PI+,A2058 melanoma cells [5]; 48 h,5.94 ± 0.52
same,Early Apo An+/PI−,A2058 melanoma cells [5]; 48 h,11.52 ± 0.42
same,Late Apo An+/PI+,A2058 melanoma cells [5]; 48 h,13.85 ± 2.57
same,Live An−/PI−,A2058 melanoma cells [5]; 48 h,68.70 ± 1.63
same,Dead An−/PI+,A2058 melanoma cells [5]; 72 h,11.65 ± 1.43
same,Early Apo An+/PI−,A2058 melanoma cells [5]; 72 h,13.30 ± 1.71
same,Late Apo An+/PI+,A2058 melanoma cells [5]; 72 h,23.05 ± 4.94
same,Live An−/PI−,A2058 melanoma cells [5]; 72 h,52.00 ± 5.23
same,Dead An−/PI+,BLM melanoma cells [6]; 24 h,6.25 ± 0.20
same,Early Apo An+/PI−,BLM melanoma cells [6]; 24 h,12.96 ± 0.77
same,Late Apo An+/PI+,BLM melanoma cells [6]; 24 h,6.90 ± 0.09
same,Live An−/PI−,BLM melanoma cells [6]; 24 h,73.90 ± 0.49
same,Dead An−/PI+,BLM melanoma cells [6]; 48 h,5.81 ± 0.86
same,Early Apo An+/PI−,BLM melanoma cells [6]; 48 h,20.25 ± 1.27
same,Late Apo An+/PI+,BLM melanoma cells [6]; 48 h,12.40 ± 0.49
same,Live An−/PI−,BLM melanoma cells [6]; 48 h,61.50 ± 2.61
same,Dead An−/PI+,BLM melanoma cells [6]; 72 h,5.90 ± 1.47
same,Early Apo An+/PI−,BLM melanoma cells [6]; 72 h,25.95 ± 3.80
same,Late Apo An+/PI+,BLM melanoma cells [6]; 72 h,28.55 ± 3.23
same,Live An−/PI−,BLM melanoma cells [6]; 72 h,39.60 ± 0.90
same,Cells with reduced mitochondrial membrane potential (MMP),A2058 melanoma cells [7],significant increase
same,Cells with reduced mitochondrial membrane potential (MMP),BLM melanoma cells [8],significant increase

# — PMC9603750, “Chalcone-Acridine Hybrid Suppresses Melanoma Cell Progression via G2/M Cell Cycle Arrest, DNA Damage, Apoptosis, and Modulation of MAP Kinases Activity” (International Journal of Molecular Sciences, 2022)
